Test results as given in patent US11384115B2, “Nuclear sulfated oxysterol, potent regulator of lipid homeostasis, for therapy of hypercholesterolemia, hypertriglycerides, fatty liver diseases, and atherosclerosis” (Virginia Commonwealth University, priority 2004, dated 2022).

Columns and labels:
[1] = system: TNFα and IL-1β mRNA; experiment: LPS-induced TNFα, IL-1β and NFκB mRNA by real-time RT-PCR in THP-1 macrophages; type: cell-based, human; conditions: for LPS-induced IL-1β mRNA levels / LPS-induced TNFα mRNA levels: 25 hours; for LPS-induced IL-1β mRNA levels: FIG. 28A; for LPS-induced TNFα mRNA levels: FIG. 28B
Description: FIGS. 28A and B. Addition of 25HC3S suppresses LPS-induced IL-1β (A) and TNFα (B) expression in macrophages. To study the effect of 25HC3S on LPS-induced TNFα and IL-1β expression and release, macrophages were treated with 1 μg/ml of LPS and different concentrations of 25HC3S and 25HC as indicated for 25 hours; mRNA levels of TNFα and IL-1β were determined by real time RT-PCR. The results represent mean SD. […] Both 25HC3S and 25HC repressed LPS-induced TNFα mRNA levels as shown in B.
(§1) Total RNA was isolated from THP-1 derived macrophages following treatments for 6 hrs otherwise as indicated using SV Total RNA Isolation Kit (Promega, Wisconsin, Wis.), which includes DNase treatment. Two microgram of total RNA was used for first-strand cDNA synthesis as recommended by manufacturer (Invitrogen, Carlsbad, Calif.). Real-time RT-PCR was performed using SYBR Green as indicator on ABI 7500 Fast Real-Time PCR System (Applied Biosystems, Foster City, Calif.). The final reaction mixture contained 10 ng of cDNA, 100 nM of each primer, 10 μl of 2×SYBR® Green PCR Master Mix (Applied Biosystems, Foster City, Calif.), and RNase-free water to complete the reaction mixture volume to 20 μl. All reactions were performed in triplicate. PCR was carried out for 40 cycles of 95° C. for 15 s and 60° C. for 1 min. The fluorescence was read during the reaction, allowing a continuous monitoring of the amount of PCR product. The data was normalized to internal control GAPDH.
pSilencer2.1-U6 neo siRNA expression vector and negative control for RNAi were purchased from Ambion, Inc. (Austin, Tex.). Three human PPARγ oligonucleotide sequences, […] (siRNA1, SEQ ID NO: 13), […] (siRNA2, SEQ ID NO: 14), and […] (siRNA3, SEQ ID NO: 15), were selected as specific siRNAs to target human PPARγ. Synthetic sense and antisense oligonucleotides were annealed by incubated at 90° C. for 3 min and then at 37° C. for 1 hr. The double stranded oligonucleotides were cloned into the BamH I-Hind III sites of the pSilencer2.1-U6 neo vector according manufacturer's protocol. The control RNA interference (RNAi) sequence was a randomly scrambled and was not found in the mouse, human, or rat genome databases. All of the constructs were confirmed by sequencing. THP-1 macrophages were transfected with a PPARγ siRNA or control RNAi using FugeneHD reagent according to the manufacturer's instructions (Roche Applied Science, Indianapolis, Ind.). After incubation for 4 hrs, the medium was changed with normal medium and compounds were added at appropriate concentrations as indicated. Cells were harvested after 48 hrs following the addition, and PPARγ protein levels were determined using western blot and mRNA levels of inflammatory response factors were measured by real time RT-PCR analysis.

[2] = system: SREBP-2; experiment: Western blot of SREBP-2 activation in HepG2 cells; type: cell-based, human
Description: Western blot analysis of SREBPs activation following 25HC3S or 25HC treatment in HepG2 cells. Total proteins were extracted from HepG2 cells treated with 25HC in ethanol (0.1%) (FIGS. 18A and 18C) or 25HC3S in DMSO (0.1%) (FIGS. 18B and 18D), cultured in the media in absence (FIGS. 18A and 18B) or presence (FIGS. 18C and 18D) of mevinolin (50 mM) and mevalonate (0.5 mM). SREBP-1 and SREBP-2 protein levels in the cells were determined by Western blot analysis. The extracted protein (100 μg) was loaded onto each lane for each condition as indicated. The data represent a typical result from one of three independent experiments.
Microsomal proteins (80 μg) were separated on a 7.5% SDS-polyacrylamide denaturing gel according to the method of Laemmli (14). Following SDS-PAGE (Hoefer Vertical Slab Gel Unit; Heofer, San Francisco, Calif.), proteins were electrophoretically transferred overnight (4° C.) to Immobilon-P membranes using a Hoefer Trans Blot Electrophoretic Transfer cell. The membranes were then blocked for 90 minutes (25° C.) in blocking buffer (PBS, pH 7.4, 0.1% Tween, 5% non-fat dry milk). Proteins were then incubated for 90 minutes (25° C.) or overnight (4° C.) with a rabbit polyclonal IgG (1:2500-1:20,000) against human SREBP-1, SREBP-2, or HMG CoA reductase. […] Protein bands were detected using the Amersham ECL plus Kit.

[3] = system: PPARγ mRNA; experiment: PPARγ mRNA by real time RT-PCR in macrophages; type: cell-based, human
Description: as §1

[4] = system: SREBP-1; experiment: Western blot of SREBP-1 activation in HepG2 cells; type: cell-based, human; conditions: for mature forms of SREBP-1: HepG2, dose dependent
Description: FIGS. 18A-18D. Western blot analysis of SREBPs activation following 25HC3S or 25HC treatment in HepG2 cells. […] SREBP-1 and SREBP-2 protein levels in the cells were determined by Western blot analysis. The extracted protein (100 μg) was loaded onto each lane for each condition as indicated. The data represent a typical result from one of three independent experiments. The trends of the protein levels are highly reproducible.
Microsomal proteins (80 μg) were separated on a 7.5% SDS-polyacrylamide denaturing gel according to the method of Laemmli (14). Following SDS-PAGE (Hoefer Vertical Slab Gel Unit; Heofer, San Francisco, Calif.), proteins were electrophoretically transferred overnight (4° C.) to Immobilon-P membranes using a Hoefer Trans Blot Electrophoretic Transfer cell. The membranes were then blocked for 90 minutes (25° C.) in blocking buffer (PBS, pH 7.4, 0.1% Tween, 5% non-fat dry milk). Proteins were then incubated for 90 minutes (25° C.) or overnight (4° C.) with a rabbit polyclonal IgG (1:2500-1:20,000) against human SREBP-1, SREBP-2, or HMG CoA reductase. After washing, a secondary antibody (goat anti-rabbit IgG-Horse-radish peroxidase conjugate, 1:2500) was added to the blocking solution (25° C., 90 minutes). Protein bands were detected using the Amersham ECL plus Kit.

[5] = system: NFκB; experiment: Western blot of nuclear NFκB levels in THP-1 macrophages; type: cell-based, human
Description: A, THP-1 macrophages were treated with 25HC3S or 25HC for 24 hrs followed by addition or no addition of TNFα for another 3 hrs. The nuclear NFκB levels were analyzed by Western blot. The data represent one typical result out of three experiments.
Fifty μg of total cell lysates or nuclear protein extracts, otherwise as indicated, were separated on 10% SDS-PAGE gels and transferred onto a polyvinylidene difluoride membrane as described previously [31]. Membranes were blocked in TBS containing 5% of nonfat dried milk for 1 hr. The specific proteins were determined by incubation with specific antibodies against human PPAR or IκB overnight at 4° C. with shaking. After washing, the membrane was incubated in a 1:3,000 dilution of a secondary antibody (goat anti-rabbit or anti-mouse IgG-HP conjugate; Bio-Rad, Hercules, Calif.) at room temperature for 1 hr in the washing buffer (Tris buffered solution containing 0.5% Tween 20). The protein bands were visualized using Western Lightening Chemiluminescence Reagent (Perkin-Elmer, Waltham, Mass.). The expression levels were normalized to Lamin.

[6] = system: PPARγ; experiment: PPRE promoter reporter gene-luciferase assay in H441 cells; type: cell-based, human
Description: H441 cells were seeded in 96-well plates. When cell density reached 90-95%, the cells were transfected with an expression plasmid as indicated using a lipid-based FuGENE HD transfection reagent according to the manufacture (Roche, Indianapolis, Ind.). A synthetic renilla luciferase reporter, phrG-TK (Promega, Wisconsin, Wis.), was used as a luciferase internal standard. For PPRE reporter gene assay, 50 ng of pGL3-PPRE-acyl-CoA oxidase luciferase reporter, 50 ng of expression plasmid pCMX-PPARγ, and 50 ng of phrG-TK vector (internal standard) were cotransfected as per the manufacture's instruction. […] Luciferase activities were determined using the Dual-Glo Luciferase Assay System according to the manufacturer's protocol (Promega, Wisconsin, Wis.). The amount of luciferase activity was measured using a TopCount NXT Microplate Scintillation and Luminescence Counter (Packard, Meriden, Conn.) and normalized to the amount of phG-TK luciferase activity. Transfections were carried out in triplicate for each sample, and each experiment was repeated three times.

[7] = Liver triglycerides (Sudan IV staining) in mice on normal or high cholesterol diet; type: in vivo; conditions: normal or high cholesterol diet for 8 days
Text: To test the effect of diet on cholesterol levels, mice were provided with either a normal or high cholesterol diet for 8 days, and treated with the nuclear oxysterol as described above.

| Compound | LPS-induced IL-1β mRNA levels ([1]; 1 μg/ml LPS) | LPS-induced TNFα mRNA levels ([1]; 1 μg/ml LPS) | increase of LPS-induced IL-1β mRNA levels ([1]; macrophages, 1 μg/ml LPS) [fold] | mature form of SREBP-2 [2] | PPARγ mRNA levels [3] | mature forms of SREBP-1 [4] | nuclear NFκB levels ([5]; in the absence of TNFα, 24 hrs) | nuclear NFκB levels ([5]; in the presence of TNFα) | LPS-induced TNFα, IL-1β and NFκB expression ([1]; 12 μM, 48 hrs, control macrophages) | suppression of IL-1 and TNFα expression in the presence of T0070907 ([1]; PPARγ antagonist T0070907) | LPS-induced TNFα, IL-1β and NFκB expression in siRNA-expressed cells ([1]; PPARγ knock down macrophages) | suppression of LPS-induced IL-1β mRNA levels ([1]; macrophages, 1 μg/ml LPS) [fold] | PPARγ reporter gene activities in the presence of the antagonist T0070907 ([6]; H441, ACOX-PPRE reporter and PPARγ co-overexpression, 1 μM T0070907) | PPRE activity relative to rosiglitazone ([6]; at 25 μM) | inhibition of SREBP-1 activation ([4]; HepG2, media containing 50 μM of mevinolin and 0.5 μM of mevalonate) | triglyceride levels in liver tissues [7] |
| --- | --- | --- | --- | --- | --- | --- | --- | --- | --- | --- | --- | --- | --- | --- | --- | --- |
| C[C@H](CCCC(C)(C)O)[C@H]1CC[C@H]2[C@@H]3CC=C4C[C@@H](O)CC[C@]4(C)[C@H]3CC[C@]12C [25HC, 25-hydroxycholesterol, reference compound] | significantly increased | repressed | 2 | only slightly decreased | neither 25HC nor 25HC3S was able to change | decreases | increased | significantly increased |  |  |  |  |  |  |  |  |
| C[C@H](CCCC(C)(C)O)[C@H]1CC[C@H]2[C@@H]3CC=C4C[C@@H](OS(=O)(=O)O)CC[C@]4(C)[C@H]3CC[C@]12C [25HC3S, 5-cholesten-3β, 25-diol 3-sulphate] | significantly suppressed | repressed |  | only slightly decreased | neither 25HC nor 25HC3S was able to change | decreases | decreased | failed to decrease | significantly suppressed | significantly be blunted | failed in suppressing | 2 | failed | reached to a similar levels as that induced by the PPARγ agonist rosiglitazone | more potent inhibition on SREBP-1 activation than 25HC | significantly decreased |
